Patent US20160075689A1, “POLYMERASE, ENDONUCLEASE, AND HELICASE INHIBITORS AND METHODS OF USING THEREOF” (THE BOARD OF TRUSTEES OF THE UNIVERSITY OF ARKANSAS, priority 2013, published 2016)

Biological target: T1, EndoG (Homo sapiens, UniProt Q14249)
T1 sequence (Q14249 49-297): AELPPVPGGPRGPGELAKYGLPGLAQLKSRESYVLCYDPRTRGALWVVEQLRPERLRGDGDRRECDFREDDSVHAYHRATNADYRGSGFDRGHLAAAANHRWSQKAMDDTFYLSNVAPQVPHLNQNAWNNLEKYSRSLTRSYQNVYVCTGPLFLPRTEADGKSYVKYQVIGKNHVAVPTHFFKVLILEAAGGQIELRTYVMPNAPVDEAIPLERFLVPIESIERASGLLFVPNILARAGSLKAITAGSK
Test: High-throughput EndoG screening assay
Format: biochemical
Conditions: 20 min; compound 1 μM; read-out: % EndoG activity in the presence of the compound
Method: A reaction mixture was prepared in each well of a white 96-well plate (Costar, Corning, N.Y.) as follows: 0.25 μM Cy5.5-labeled oligonucleotide (described in US provisional patent filed Oct. 19, 2012, Ser. No. 61/716,097) 0.3 mM MgCl2, 10 mM Tris-HCl, pH 7.4, 1 μl DMSO containing 5 or 50 ng of test compound, and nuclease-free water for a total reaction volume of 100 μl. The background (negative control) and uninhibited EndoG samples were measured using DMSO only, or DMSO containing recombinant EndoG (4 μg/ml), respectively. After addition of EndoG, fluorescence intensity was kinetically measured on a Bio-Tek Synergy 4.0 plate reader at 37° C. and mean velocity (mRFU/min) within 20 min was automatically calculated by the plate reader. The background was subtracted prior to the calculation of EndoG activity (%). The percent of EndoG activity was calculated from the mean velocity of a compound divided by the mean velocity of DMSO with recombinant EndoG, and the obtained value multiplied by 100.

| SMILES | remaining activity at 1 µM [%] |
| --- | --- |
| Cc1c(C=C2C(=O)NC(=O)NC2=O)c2ccccc2n1C(=O)c1cccc2ccccc12 [PNR-6-64] | 71.7 |
| O=C1NC(=S)NC(=O)C1=Cc1cn(Cc2cccc3ccccc23)c2ccc(Cl)cc12 [PNR-6-89] | 3.5 |
| COc1ccc2c(c1)c(C=C1C(=O)NC(=S)NC1=O)c(C)n2Cc1cccc2ccccc12 [PNR-7-27] | 19.1 |
| CN1C(=O)C(=Cc2cn(Cc3cccc4ccccc34)c3ccc(Br)cc23)C(=O)N(C)C1=O [PNR-6-93] | 45.8 |
| CN1C(=O)C(=Cc2cn(Cc3ccc4ccccc4c3)c3ccccc23)C(=O)N(C)C1=O [PNR-6-99] | 71.7 |
| CN1C(=O)C(=Cc2cn(Cc3cccc4ccccc34)c3ccc(Cl)cc23)C(=O)N(C)C1=O [PNR-6-90] | 35.9 |
| O=C1NC(=S)NC(=O)C1=Cc1cn(Cc2ccc3ccccc3c2)c2ccccc12 [PNR-6-98] | 15.7 |
| O=C1NC(=S)NC(=O)C1=Cc1cn(Cc2cccc(C(F)(F)F)c2)c2ccc(Cl)cc12 [PNR-7-18] | 14.1 |
| Cc1c(C=C2C(=O)NC(=S)NC2=O)c2ccccc2n1Cc1ccc([N+](=O)[O-])cc1 [PNR-6-17] | 69.8 |
| COc1ccc2c(c1)c(C=C1C(=O)NC(=S)NC1=O)cn2Cc1cccc(C(F)(F)F)c1 [PNR-7-21] | 28.8 |
| O=C1NC(=S)NC(=O)C1=Cc1cn(Cc2cccc3ccccc23)c2ccccc12 [PNR-6-83] | 16 |
| CN1C(=O)C(=Cc2cn(C(=O)c3ccc4ccccc4c3)c3ccc(Cl)cc23)C(=O)N(C)C1=O [PNR-6-60] | 67.9 |
| COc1ccc2c(c1)c(C=C1C(=O)NC(=O)NC1=O)cn2Cc1cccc2ccccc12 [PNR-6-85] | 52.7 |
| Cc1c(C=C2C(=O)NC(=S)NC2=O)c2ccccc2n1C(=O)c1ccc2ccccc2c1 [PNR-6-69] | 31.6 |
| CN1C(=O)C(=Cc2cn(Cc3cccc(C(F)(F)F)c3)c3ccccc23)C(=O)N(C)C1=O [PNR-7-16] | 17.2 |
| CN1C(=O)C(=Cc2cn(Cc3ccc4ccccc4c3)c3ccc(Cl)cc23)C(=O)N(C)C1=O [PNR-7-3] | 59.1 |

| SMILES | remaining activity at 1 µM [%] |
| --- | --- |
| O=C1NC(=S)NC(=O)C1=Cc1cn(Cc2cccc3ccccc23)c2ccc(Br)cc12 [PNR-6-92] | 8.9 |
| O=C1NC(=O)C(=Cc2cn(Cc3cccc4ccccc34)c3ccc(Br)cc23)C(=O)N1 [PNR-6-91] | 12.7 |
| Cc1c(C=C2C(=O)NC(=S)NC2=O)c2ccccc2n1Cc1cccc(C(F)(F)F)c1 [PNR-7-24] | 73.6 |
| O=C1NC(=O)C(=Cc2cn(Cc3ccc4ccccc4c3)c3ccc(Cl)cc23)C(=O)N1 [PNR-7-1] | 14.8 |
| CN1C(=O)C(=Cc2cn(C(=O)c3cccc4ccccc34)c3ccc(Cl)cc23)C(=O)N(C)C1=O [PNR-6-59] | 47.5 |
| COc1cc(Cn2c(C)c(C=C3C(=O)NC(=S)NC3=O)c3ccccc32)cc(OC)c1 [PNR-5-96] | 71.5 |
| O=C1NC(=O)C(=Cc2cn(Cc3cccc(C(F)(F)F)c3)c3ccc(Cl)cc23)C(=O)N1 [PNR-7-17] | 57.1 |
| COc1ccc2c(c1)c(C=C1C(=O)NC(=S)NC1=O)c(C)n2C(=O)c1cccc2ccccc12 [PNR-6-74] | 63.5 |
| O=C1NC(=O)C(=Cc2cn(Cc3ccccc3Br)c3ccccc23)C(=O)N1 [PNR-7-7] | 14.1 |
| O=C1NC(=S)NC(=O)C1=Cc1cn(Cc2ccc3ccccc3c2)c2ccc(Cl)cc12 [PNR-7-2] | 17.8 |
| Cc1c(C=C2C(=O)NC(=S)NC2=O)c2ccccc2n1C(=O)c1cccc2ccccc12 [PNR-6-65] | 65 |
| COc1ccc2c(c1)c(C=C1C(=O)NC(=S)NC1=O)cn2Cc1cccc2ccccc12 [PNR-6-86] | 9.55 |
| COc1ccc2c(c1)c(C=C1C(=O)NC(=O)NC1=O)cn2Cc1ccc2ccccc2c1 [PNR-7-4] | 24.7 |
| COc1ccc2c(c1)c(C=C1C(=O)NC(=S)NC1=O)cn2Cc1ccc2ccccc2c1 [PNR-7-5] | 13.8 |
| O=C1NC(=O)C(=Cc2cn(Cc3cccc4ccccc34)c3ccc(Cl)cc23)C(=O)N1 [PNR-6-88] | 22.9 |
| O=C1NC(=S)NC(=O)C1=Cc1cn(Cc2ccccc2Br)c2ccccc12 [PNR-7-8] | 58 |
